Reference: US20240425478A1, “CYCLOPENTYLPYRAZOLE CDK2 INHIBITORS” (Genentech, Inc., priority 2021, published 2024)
Where two headings read alike, the source gives them in different places.

Key:
[1] = biological target: T1, Cyclin Dependent Kinase 1/Cyclin A2 (CDK1-cycA2) (Homo sapiens, UniProt P06493); assay: CDK1-cycA2 TR-FRET (Lance) enzyme assay; type: biochemical; settings: for Ki: Table O, enzymatic assay; for FS CDK1/CDK2: fold selectivity, enzymatic Ki ratio
T1 construct: purchased ProQinase 0134-0054-1
T1 sequence (P06493 whole entry): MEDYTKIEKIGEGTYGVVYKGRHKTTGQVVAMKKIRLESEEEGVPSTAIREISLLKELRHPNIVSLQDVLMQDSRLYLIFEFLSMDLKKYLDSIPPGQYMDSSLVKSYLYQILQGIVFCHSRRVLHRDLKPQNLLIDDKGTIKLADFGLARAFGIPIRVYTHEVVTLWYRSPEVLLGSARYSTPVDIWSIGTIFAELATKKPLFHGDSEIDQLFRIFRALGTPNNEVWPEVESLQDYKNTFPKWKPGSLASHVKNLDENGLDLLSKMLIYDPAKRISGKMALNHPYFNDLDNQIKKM
T1 sequence (P20248 whole entry partner): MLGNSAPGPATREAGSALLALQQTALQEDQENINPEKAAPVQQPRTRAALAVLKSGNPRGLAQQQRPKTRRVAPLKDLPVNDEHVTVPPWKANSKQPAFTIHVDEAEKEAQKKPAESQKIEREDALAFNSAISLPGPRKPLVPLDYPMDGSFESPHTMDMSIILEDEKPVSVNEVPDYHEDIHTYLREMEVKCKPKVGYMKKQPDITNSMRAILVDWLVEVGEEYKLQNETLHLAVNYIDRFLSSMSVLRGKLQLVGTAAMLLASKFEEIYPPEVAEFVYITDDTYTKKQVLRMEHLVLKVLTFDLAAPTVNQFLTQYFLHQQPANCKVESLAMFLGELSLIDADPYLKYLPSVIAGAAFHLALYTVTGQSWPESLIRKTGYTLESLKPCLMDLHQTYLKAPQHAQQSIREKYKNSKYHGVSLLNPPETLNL
Outline: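 Human CDK1/cyclin A2 pre-incubated 30 min with compound dose responses in 50 mM HEPES pH 7.5, 10 mM MgCl2, 2 mM TCEP, 0.05% BGG, 0.01% Brij 35. Reaction quenched with EDTA (15 mM final); TR-FRET readout using Eu-anti-phospho-4E-BP1, acceptor/donor ratio. Inhibition constants from Morrison equation.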

[2] = biological target: T2, Cyclin Dependent Kinase 2/Cyclin E1 (CDK2-cycE1) (Homo sapiens, UniProt P24941); assay: CDK2-cycE1 TR-FRET (LANCE) enzyme assay; type: biochemical; settings: for FS CDK1/CDK2 / FS CDK4/CDK2: fold selectivity; for CDK2 Ki fold change in potency versus Comparator D / CDK2 Ki fold change in potency versus Comparator E: in brackets after CDK2 Ki; for increased fold-selectivity CDK1/CDK2 over Comparator C: (+) sign after FS CDK1/CDK2; for increased fold-selectivity CDK4/CDK2 over Comparator C: (+) sign after FS CDK4/CDK2;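 on improvement in potency against CDK2 (Ki) over Comparator C: fold lower CDK2 Ki than comparator c (Ki 0.032 µM)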
T2 construct: purchased ProQinase 0050-0055-1
Outline: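 Compound dose responses pre-incubated 30 min with CDK2-cycE1 in 50 mM HEPES pH 7.5, 10 mM MgCl2, 2 mM TCEP, 0.05% BGG, 0.01% Brij 35. Reaction quenched with EDTA (15 mM final), phospho-MBP detected by Eu-anti-phospho-MBP TR-FRET (acceptor/donor ratio). Inhibition constants from Morrison equation.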

[3] = biological target: T3, Cyclin Dependent Kinase 4/Cyclin D3 (CDK4-cycD3) (Homo sapiens, UniProt P11802); assay: CDK4-cycD3 TR-FRET (LANCE) enzyme assay; type: biochemical; settings: for Ki: Table O, enzymatic assay; for FS CDK4/CDK2: fold selectivity, enzymatic Ki ratio
T3 construct: purchased Carna Biosciences 04-105
T3 sequence (P11802 whole entry): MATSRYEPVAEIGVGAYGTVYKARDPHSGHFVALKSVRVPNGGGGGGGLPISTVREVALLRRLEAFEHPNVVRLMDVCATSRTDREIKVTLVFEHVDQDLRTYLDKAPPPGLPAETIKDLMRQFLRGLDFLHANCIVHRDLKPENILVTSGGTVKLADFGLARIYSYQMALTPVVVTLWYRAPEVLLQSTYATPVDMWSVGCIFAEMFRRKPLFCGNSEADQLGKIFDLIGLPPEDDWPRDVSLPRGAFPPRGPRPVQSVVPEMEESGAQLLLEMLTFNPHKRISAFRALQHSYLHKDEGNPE
T3 sequence (P30281 whole entry partner): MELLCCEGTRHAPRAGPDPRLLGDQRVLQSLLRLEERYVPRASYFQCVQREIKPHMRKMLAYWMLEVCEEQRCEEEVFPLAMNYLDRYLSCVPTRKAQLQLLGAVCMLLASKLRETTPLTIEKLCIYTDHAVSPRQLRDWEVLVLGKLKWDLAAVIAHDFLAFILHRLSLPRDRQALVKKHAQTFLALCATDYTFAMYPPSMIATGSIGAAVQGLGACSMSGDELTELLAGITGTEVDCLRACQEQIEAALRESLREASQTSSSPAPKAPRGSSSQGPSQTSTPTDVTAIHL
Outline: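 Compound dose responses pre-incubated 30 min with enzyme mix in 50 mM HEPES pH 7.5, 10 mM MgCl2, 2 mM TCEP, 0.05% BGG, 0.01% Brij 35. Reaction quenched with EDTA (15 mM final); Eu-anti-phospho-4E-BP1 TR-FRET detection, acceptor/donor ratio. Ki derived by Morrison equation.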

[4] = tested on: OVISE (JCRB1043, CCNE1-amplified); assay: OVISE EdU incorporation cell proliferation assay (CDK2-dependent); type: cell-based; settings: for CDK2 cell potency compared with Comparator E: CDK2 OVISE cellular assay data; for IC50: cellular assay, read-out: CDK2 OVISE IC50; for FS SKOV-3/OVISE / FS p-H3/OVISE: fold selectivity; for FS p-H3/OVISE: cellular p-H3 IC50 over OVISE IC50; for CDK2 OVISE IC50 fold change in potency versus Comparator D: Table R; for CDK2 OVISE IC50 fold change in potency versus Comparator D / CDK2 OVISE IC50 fold change in potency versus Comparator E / improvement in CDK2 OVISE cell potency over Comparator C: in brackets after OVISE IC50; for CDK2 OVISE IC50 fold change in potency versus Comparator E: Table S; for increased fold-selectivity SKOV-3/OVISE over Comparator C: (+) sign after FS SKOV-3/OVISE; for improvement in CDK2 OVISE cell potency over Comparator C: Comparator C 5.5 μM
Outline: (§1)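 Cells in RPMI/10% FBS dosed with compound (0.5% DMSO final) for 16 h at 37 °C, 5% CO2, then EdU 0.5 μM final for 8 h before fixation and imaging. IC50 from 4-parameter logistic fit of EdU-positive cell fraction versus dose.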

SKOV-3 (ATCC HTB-77) = assay: SKOV-3 EdU incorporation cell proliferation assay (CDK4/6-dependent); type: cell-based; settings: for IC50: Homo sapiens, cellular assay, read-out: CDK4/6 SKOV-3 IC50; for selectivity for CDK2 over CDK4 compared with Comparator E: SKOV-3/OVISE fold-selectivity cellular assay data; for FS SKOV-3/OVISE: fold selectivity, cellular IC50 ratio
Outline: as §1

HCT116 cells = assay: p-H3 HCT-116 mitotic release cell proliferation assay (cellular CDK1); type: cell-based; settings: Homo sapiens, HCT-116; Table O, cellular assay; read-out: CDK1 p-H3 IC50
Outline: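 HCT116 cells arrested 16 h with 500 nM nocodazole, then exposed to compound for 4 h at 37 °C (0.1% DMSO). Lysates read by HTRF/FRET with donor and acceptor phospho-Histone H3 (Ser10) antibodies, ≥2 h at room temperature; CDK1 inhibition seen as loss of p-H3 on mitotic release.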

[5] = Table O, enzymatic assay, read-out: CDK2 Ki
[6] = Table O, enzymatic CDK1 Ki over CDK2 Ki
[7] = Table O, enzymatic CDK4 Ki over CDK2 Ki
[8] = Table R, enzymatic assay, read-out: CDK2 Ki
[9] = Table S, enzymatic assay, read-out: CDK2 Ki
[10] = Table O, cellular SKOV-3 IC50 over OVISE IC50
[11] = Table Q, enzymatic assay, read-out: CDK2 Ki
[12] = read-out: CDK2 activity / potency (enzymatic assay)

| Structure (SMILES) | Ki [1] | Ki [2, 5] | FS CDK1/CDK2 [2, 6] | FS CDK4/CDK2 [2, 7] | Ki [3] | IC50 ([4]; Table O) | FS SKOV-3/OVISE [4, 10] | FS p-H3/OVISE ([4]; Table O) | IC50 (SKOV-3 (ATCC HTB-77); SK-OV-3, Table O) | IC50 (HCT116 cells) | improvement in potency against CDK2 (Ki) over Comparator C [2] | increased fold-selectivity CDK4/CDK2 over Comparator C ([2]; Table Q) | Ki [2, 11] | FS CDK1/CDK2 ([2]; Table Q, enzymatic) | FS CDK4/CDK2 ([2]; Table Q, enzymatic) | Ki [2, 12] | increased fold-selectivity SKOV-3/OVISE over Comparator C ([4]; Table Q) | FS SKOV-3/OVISE ([4]; Table Q, cellular) | improvement in CDK2 OVISE cell potency over Comparator C ([4]; Table Q) | IC50 (SKOV-3 (ATCC HTB-77); SK-OV-3, Table Q) | also measured |
| --- | --- | --- | --- | --- | --- | --- | --- | --- | --- | --- | --- | --- | --- | --- | --- | --- | --- | --- | --- | --- | --- |
| Cn1nc(Nc2cc([C@H]3CC[C@@H](OC(=O)NC(C)(C)C)C3)[nH]n2)ccc1=O [Example 6C, (1R,3S)-3-(3-((1-methyl-6-oxo-1,6-dihydropyridazin-3-yl)amino)-1H-pyrazol-5-yl)cyclopentyl tert-butylcarbamate] | 3.6 nM | < 0.1 nM | >47 | >584 | 45 nM | 30 nM | 50 | 0.087 | 1500 nM | 26 nM |  |  |  |  |  |  |  |  |  |  | FS CDK1/CDK2 increased over Comparator D, (+) sign ([1]; Table R): (+); FS CDK1/CDK2 ([1]; Table R): > 47; FS CDK1/CDK2 increased over Comparator E, (+) sign ([1]; Table S): (+); FS CDK1/CDK2 ([1]; Table S): > 47; Ki [2, 8]: < 0.1 nM; CDK2 Ki fold change in potency versus Comparator D ([2]; Table R): 27 fold; Ki [2, 9]: < 0.1 nM; CDK2 Ki fold change in potency versus Comparator E ([2]; Table S): 5.2 fold; FS CDK4/CDK2 increased over Comparator D, (+) sign ([3]; Table R): (+); FS CDK4/CDK2 ([3]; Table R): > 584; FS CDK4/CDK2 increased over Comparator E, (+) sign ([3]; Table S): (+); FS CDK4/CDK2 ([3]; Table S): > 584; CDK2 cell potency compared with Comparator E [4]: more potent CDK2 cell inhibitors compared to Comparator E; CDK2 OVISE IC50 fold change in potency versus Comparator D [4]: 127 fold; CDK2 OVISE IC50 fold change in potency versus Comparator E [4]: 5.7 fold; selectivity for CDK2 over CDK4 compared with Comparator E (SKOV-3 (ATCC HTB-77)): increase in selectivity for CDK2 over CDK4; FS SKOV-3/OVISE increased over Comparator D, (+) sign (SKOV-3 (ATCC HTB-77); Table R): (+); FS SKOV-3/OVISE (SKOV-3 (ATCC HTB-77); Table R): 50; FS SKOV-3/OVISE increased over Comparator E, (+) sign (SKOV-3 (ATCC HTB-77); Table S): (+); FS SKOV-3/OVISE (SKOV-3 (ATCC HTB-77); Table S): 50 |
| CC(C)NC(=O)O[C@@H]1CC[C@H](c2cc(Nc3cnccn3)n[nH]2)C1 [Example 2E, (1R,3S)-3-(3-(pyrazin-2-ylamino)-1H-pyrazol-5-yl)cyclopentyl isopropylcarbamate] | 8.4 nM | 0.13 nM | 65 | 57 | 7.4 nM | 16 nM | 8.1 | 0.88 | 130 nM | 14 nM | 246 fold | (+) (The (+) sign in Table Q signifies desirable increased fold-selectivity of the exemplary compounds over Comparator C) | 0.13 nM | 65 | 57 | ≤ 1 nM | (+) (The (+) sign in Table Q signifies desirable increased fold-selectivity of the exemplary compounds over Comparator C) | 8.1 | 344 fold | 130 nM | increased fold-selectivity CDK1/CDK2 over Comparator C ([2]; Table Q): (+) (The (+) sign in Table Q signifies desirable increased fold-selectivity of the exemplary compounds over Comparator C) |
| Cc1nccnc1Nc1cc([C@H]2CC[C@@H](OC(=O)NC(C)C)C2)[nH]n1 [Example 2T, (1R,3S)-3-(3-((3-methylpyrazin-2-yl)amino)-1H-pyrazol-5-yl)cyclopentyl isopropylcarbamate] | 64 nM | 0.86 nM | 74 | 170 | 150 nM | 52 nM | 29 | 2.3 | 1500 nM | 120 nM | 37 fold | (+) (The (+) sign in Table Q signifies desirable increased fold-selectivity of the exemplary compounds over Comparator C) | 0.86 nM | 74 | 170 | ≤ 1 nM | (+) (The (+) sign in Table Q signifies desirable increased fold-selectivity of the exemplary compounds over Comparator C) | 29 | 106 fold | 1500 nM | increased fold-selectivity CDK1/CDK2 over Comparator C ([2]; Table Q): (+) (The (+) sign in Table Q signifies desirable increased fold-selectivity of the exemplary compounds over Comparator C) |
| Cc1ncccc1Nc1cc([C@H]2CC[C@@H](OC(=O)NC(C)(C)C)C2)[nH]n1 [Example 4, (1R,3S)-3-(3-((2-methylpyridin-3-yl)amino)-1H-pyrazol-5-yl)cyclopentyl tert-butylcarbamate] | 25 nM | 0.22 nM | 110 | 160 | 34 nM | 20 nM | 46 | 1.5 | 920 nM | 30 nM |  |  |  |  |  | ≤ 1 nM |  |  |  |  | FS CDK1/CDK2 increased over Comparator D, (+) sign ([1]; Table R): (+); FS CDK1/CDK2 ([1]; Table R): 110; FS CDK1/CDK2 increased over Comparator E, (+) sign ([1]; Table S): (+); FS CDK1/CDK2 ([1]; Table S): 110; Ki [2, 8]: 0.22 nM; CDK2 Ki fold change in potency versus Comparator D ([2]; Table R): 12.3 fold; Ki [2, 9]: 0.22 nM; CDK2 Ki fold change in potency versus Comparator E ([2]; Table S): 2.4 fold; FS CDK4/CDK2 increased over Comparator D, (+) sign ([3]; Table R): (+); FS CDK4/CDK2 ([3]; Table R): 160; FS CDK4/CDK2 increased over Comparator E, (+) sign ([3]; Table S): (+); FS CDK4/CDK2 ([3]; Table S): 160; CDK2 cell potency compared with Comparator E [4]: more potent CDK2 cell inhibitors compared to Comparator E; CDK2 OVISE IC50 fold change in potency versus Comparator D [4]: 190 fold; CDK2 OVISE IC50 fold change in potency versus Comparator E [4]: 8.5 fold; selectivity for CDK2 over CDK4 compared with Comparator E (SKOV-3 (ATCC HTB-77)): increase in selectivity for CDK2 over CDK4; FS SKOV-3/OVISE increased over Comparator D, (+) sign (SKOV-3 (ATCC HTB-77); Table R): (+); FS SKOV-3/OVISE (SKOV-3 (ATCC HTB-77); Table R): 46; FS SKOV-3/OVISE increased over Comparator E, (+) sign (SKOV-3 (ATCC HTB-77); Table S): (+); FS SKOV-3/OVISE (SKOV-3 (ATCC HTB-77); Table S): 46 |
| CCn1nc(Nc2cc([C@H]3CC[C@@H](OC(=O)NC(C)C)C3)[nH]n2)ccc1=O [Example 2HH, (1R,3S)-3-(3-((1-ethyl-6-oxo-1,6-dihydropyridazin-3-y1)amino)-1H-pyrazol-5-y1)cyclopenty1 isopropylcarbamate] | 6.9 nM | 0.43 nM | 16 | 490 | 210 nM | 60 nM | 77 | 0.53 | 4600 nM | 32 nM |  |  |  |  |  |  |  |  |  |  |  |
| COc1cncc(Nc2cc([C@H]3CC[C@@H](OC(=O)NC(C)C)C3)[nH]n2)n1 [Example 2N, (1R,3S)-3-(3-((6-methoxypyrazin-2-yl)amino)-1H-pyrazol-5-yl)cyclopenty1 isopropylcarbamate] | 3.7 nM | 0.49 nM | 7.6 | 53 | 26 nM | 29 nM | 41 | 0.38 | 1200 nM | 11 nM | 65 fold | (+) (The (+) sign in Table Q signifies desirable increased fold-selectivity of the exemplary compounds over Comparator C) | 0.49 nM | 7.6 | 53 |  | (+) (The (+) sign in Table Q signifies desirable increased fold-selectivity of the exemplary compounds over Comparator C) | 41 | 190 fold | 1200 nM |  |
